Data reported in PubChem BioAssay (NCI).
“And” between values parts separate entries of the source, which are not always exact repeats. Identical values can stand only once.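 Grown in 96-well plates, cells were treated for 48 hours with each compound at five concentrations. Insufficient inhibition: endpoint recorded as highest concentration tested. Abbreviation: GI50, concentration required for 50% inhibition of growth. The concentration for full growth arrest is given as TGI.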

Assays:
Assay in all cases: inhibition of tumour cell growth, NCI panel, 48 h
786-0 renal = system: 786-0 renal
A498 renal = system: A498 renal
A549 NSCLC = system: A549 NSCLC
ACHN renal = system: ACHN renal
CAKI-1 renal = system: CAKI-1 renal
CCRF-CEM leukemia = system: CCRF-CEM leukemia
COLO 205 colon = system: COLO 205 colon
DU-145 prostate = system: DU-145 prostate
HCC-2998 colon = system: HCC-2998 colon
HCT-116 colon = system: HCT-116 colon
HCT-15 colon = system: HCT-15 colon
HL-60(TB) leukemia = system: HL-60(TB) leukemia
HOP-62 NSCLC = system: HOP-62 NSCLC
HOP-92 NSCLC = system: HOP-92 NSCLC
HS 578T breast = system: HS 578T breast
IGROV1 ovarian = system: IGROV1 ovarian
K-562 leukemia = system: K-562 leukemia
KM12 colon = system: KM12 colon
LOX IMVI melanoma = system: LOX IMVI melanoma
M14 melanoma = system: M14 melanoma
MALME-3M melanoma = system: MALME-3M melanoma
MCF7 breast = system: MCF7 breast
MDA-MB-231 breast = system: MDA-MB-231 breast
MDA-MB-435 = system: MDA-MB-435
MOLT-4 leukemia = system: MOLT-4 leukemia
NCI-H226 lung = system: NCI-H226 lung
NCI-H23 lung = system: NCI-H23 lung
NCI-H460 lung = system: NCI-H460 lung
NCI-H522 lung = system: NCI-H522 lung
NCI/ADR-RES ovarian = system: NCI/ADR-RES ovarian
OVCAR-3 ovarian = system: OVCAR-3 ovarian
OVCAR-4 ovarian = system: OVCAR-4 ovarian
OVCAR-5 ovarian = system: OVCAR-5 ovarian
OVCAR-8 ovarian = system: OVCAR-8 ovarian
PC-3 prostate = system: PC-3 prostate
RPMI-8226 leukemia = system: RPMI-8226 leukemia
RXF 393 renal = system: RXF 393 renal
SF-268 CNS = system: SF-268 CNS
SF-295 CNS = system: SF-295 CNS
SF-539 CNS = system: SF-539 CNS
SK-MEL-2 melanoma = system: SK-MEL-2 melanoma
SK-MEL-28 melanoma = system: SK-MEL-28 melanoma
SK-MEL-5 melanoma = system: SK-MEL-5 melanoma
SN12C renal = system: SN12C renal
SNB-19 CNS = system: SNB-19 CNS
SNB-75 CNS = system: SNB-75 CNS
SR leukemia = system: SR leukemia
SW-620 colon = system: SW-620 colon
T-47D breast = system: T-47D breast
TK-10 renal = system: TK-10 renal
U251 CNS = system: U251 CNS
UACC-257 melanoma = system: UACC-257 melanoma
UACC-62 melanoma = system: UACC-62 melanoma
UO-31 renal = system: UO-31 renal

SMILES: N=C(N)c1ccc(-c2ccc(-c3cccs3)s2)cc1F
- GI50 (786-0 renal): 1.14 µM
- TGI (786-0 renal): 2.63 µM
- GI50 (A498 renal): 0.156 µM
- TGI (A498 renal): 0.621 µM
- GI50 (A549 NSCLC): 0.0305 µM
- TGI (A549 NSCLC): 1.27 µM
- GI50 (ACHN renal): 1.45 µM
- TGI (ACHN renal): 2.93 µM
- GI50 (CAKI-1 renal): 1.37 µM
- TGI (CAKI-1 renal): 2.82 µM
- GI50 (CCRF-CEM leukemia): 1.58 µM
- TGI (CCRF-CEM leukemia): 3.46 µM
- GI50 (COLO 205 colon): 0.202 µM
- TGI (COLO 205 colon): 0.39 µM
- GI50 (DU-145 prostate): 1.57 µM and 1.44 µM
- TGI (DU-145 prostate): 3.04 µM and 2.84 µM
- GI50 (HCC-2998 colon): 1.29 µM
- TGI (HCC-2998 colon): 2.93 µM
- GI50 (HCT-116 colon): 0.922 µM
- TGI (HCT-116 colon): 2.37 µM
- GI50 (HCT-15 colon): 0.629 µM
- TGI (HCT-15 colon): 2.09 µM
- GI50 (HL-60(TB) leukemia): 1.79 µM
- TGI (HL-60(TB) leukemia): 3.83 µM
- GI50 (HOP-62 NSCLC): 1.61 µM
- TGI (HOP-62 NSCLC): 3.07 µM
- GI50 (HOP-92 NSCLC): 0.576 µM
- TGI (HOP-92 NSCLC): 2.21 µM
- GI50 (HS 578T breast): 1.8 µM
- TGI (HS 578T breast): 4.49 µM
- GI50 (IGROV1 ovarian): 2.28 µM
- TGI (IGROV1 ovarian): 4.74 µM
- GI50 (K-562 leukemia): 0.341 µM
- TGI (K-562 leukemia): 1.31 µM
- GI50 (KM12 colon): 1.01 µM
- TGI (KM12 colon): 2.38 µM
- GI50 (LOX IMVI melanoma): 1.21 µM
- TGI (LOX IMVI melanoma): 2.67 µM
- GI50 (M14 melanoma): 1.45 µM
- TGI (M14 melanoma): 2.97 µM
- GI50 (MALME-3M melanoma): 2.28 µM
- TGI (MALME-3M melanoma): 4.48 µM
- GI50 (MCF7 breast): 0.5 µM
- TGI (MCF7 breast): 2.26 µM
- GI50 (MDA-MB-231 breast): 1.16 µM
- TGI (MDA-MB-231 breast): 2.93 µM
- GI50 (MDA-MB-435): 1.13 µM
- TGI (MDA-MB-435): 2.37 µM
- GI50 (MOLT-4 leukemia): 1.03 µM
- TGI (MOLT-4 leukemia): 2.87 µM
- GI50 (NCI-H226 lung): 1.74 µM
- TGI (NCI-H226 lung): 3.86 µM
- GI50 (NCI-H23 lung): 1.63 µM
- TGI (NCI-H23 lung): 3.27 µM
- GI50 (NCI-H460 lung): 0.0436 µM
- TGI (NCI-H460 lung): 1.05 µM
- GI50 (NCI-H522 lung): 1.94 µM
- TGI (NCI-H522 lung): 3.88 µM
- GI50 (NCI/ADR-RES ovarian): 2 µM
- TGI (NCI/ADR-RES ovarian): 4.3 µM
- GI50 (OVCAR-3 ovarian): 1.47 µM
- TGI (OVCAR-3 ovarian): 3.09 µM
- GI50 (OVCAR-4 ovarian): 1.54 µM
- TGI (OVCAR-4 ovarian): 3.85 µM
- GI50 (OVCAR-5 ovarian): 1.02 µM
- TGI (OVCAR-5 ovarian): 2.36 µM
- GI50 (OVCAR-8 ovarian): 2.04 µM
- TGI (OVCAR-8 ovarian): 5.19 µM
- GI50 (PC-3 prostate): 1.48 µM
- TGI (PC-3 prostate): 3.03 µM
- GI50 (RPMI-8226 leukemia): 0.288 µM
- TGI (RPMI-8226 leukemia): 0.951 µM
- GI50 (RXF 393 renal): 1.25 µM
- TGI (RXF 393 renal): 2.64 µM
- GI50 (SF-268 CNS): 1.65 µM
- TGI (SF-268 CNS): 3.37 µM
- GI50 (SF-295 CNS): 0.39 µM
- TGI (SF-295 CNS): 1.78 µM
- GI50 (SF-539 CNS): 1.35 µM
- TGI (SF-539 CNS): 3.38 µM
- GI50 (SK-MEL-2 melanoma): 1.94 µM
- TGI (SK-MEL-2 melanoma): 3.65 µM
- GI50 (SK-MEL-28 melanoma): 1.45 µM
- TGI (SK-MEL-28 melanoma): 3.09 µM
- GI50 (SK-MEL-5 melanoma): 1.27 µM
- TGI (SK-MEL-5 melanoma): 2.69 µM
- GI50 (SN12C renal): 1.63 µM
- TGI (SN12C renal): 3.69 µM
- GI50 (SNB-19 CNS): 1.77 µM
- TGI (SNB-19 CNS): 3.65 µM
- GI50 (SNB-75 CNS): 1.34 µM
- TGI (SNB-75 CNS): 2.66 µM
- GI50 (SR leukemia): 0.341 µM
- TGI (SR leukemia): 1.07 µM
- GI50 (SW-620 colon): 0.506 µM
- TGI (SW-620 colon): 1.94 µM
- GI50 (T-47D breast): 1.49 µM
- TGI (T-47D breast): 3.48 µM
- GI50 (TK-10 renal): 1.61 µM
- TGI (TK-10 renal): 3.03 µM
- GI50 (U251 CNS): 1.33 µM
- TGI (U251 CNS): 2.8 µM
- GI50 (UACC-257 melanoma): 1.77 µM
- TGI (UACC-257 melanoma): 3.43 µM
- GI50 (UACC-62 melanoma): 1.62 µM
- TGI (UACC-62 melanoma): 3.34 µM
- GI50 (UO-31 renal): 1.55 µM
- TGI (UO-31 renal): 3.34 µM
